Results as given in patent US20050060100A1, “Computer software and algorithms for systems biologically linked to cellular phenotype” (Becton Dickinson and Company, priority 2003, published 2005).

System: MC3T3-E1 osteoblast cells
Assay: ECM screen: adhesion of MC3T3-E1 cells to immobilized adhesion ligands (fluorescent nuclei count)
Format: cell-based
Conditions: "best factors" approach
Excerpt: A statistical design was developed with special consideration of the surface chemistry requirements. In particular, in this experiment the scenario shown in FIG. 9 was used, wherein the overall adhesion ligand density was kept constant from well to well and only the adhesion ligand composition was allowed to change. In other words, the concentration of a single adhesion ligand could be different from well to well, but each well has the same amount of adhesion ligand immobilized overall. This scenario is further described above. An example of such design is shown in the spreadsheet in FIG. 10. The spreadsheet serves as a computer representation of the design which is stored in a database. The top row in […] lists the 10 factors […] used in this particular screen, and their corresponding identities. In the spreadsheet shown, Factor A represents fibronectin, Factor B represents Collagen I, etc. The first column is a list of the experimental points that translate into a well in the 96-well plate, e.g., 52 wells in this case. The numbers in the spreadsheet are the factor levels. In this example, these levels are the actual volumes (in μL) of factor that are added to a particular well. In this particular design, factors get added to the wells at three volumes, e.g., 5 μL, 25 μL, or 50 μL. The total well volume in this case is 50 μL. Thus, for wells where one factor is added at 50 μL, the final well composition will comprise a single adhesion ligand covalently immobilized on the well surface. Accordingly, if 25 μL of a factor is added to a well, a second factor is added at 25 μL also, and the final well composition will comprise a mixture of two different cell adhesion ligands covalently immobilized on the well surface. When 5 μL of a factor are added, nine other factors are added at 5 μL each, as well, thus resulting in wells that comprise a mixture of all 10 cell adhesion ligands on the well surface. These experimental points containing all 10 adhesion ligands are called “mid points” and are an integral part of the statistical design in this example.
With reference now to FIG. 11, a 96-well plate layout is shown, which was translated from the particular statistical design shown in FIG. 10. In particular, the 96-well plate includes the well compositions indicated in FIG. 10, e.g., cell adhesion ligand combinations immobilized at the bottom of each well. In particular, the experimental runs in FIG. 10 correspond to rows/columns in FIG. 11, as follows: runs 1-10 in the design in FIG. 10 represent row B, columns 2-11, respectively on the array in FIG. 11; runs 11-20 represent row C, columns 2-11; runs 21-30 represent row D, columns 2-11; runs 31-40 represent row E, columns 2-11; runs 41-50 represent row F, columns 2-11; and runs 51 and 52 represent row G, columns 2 and 3, respectively. As shown by the statistical design in FIG. 10 and the corresponding 96-well plate layout in FIG. 11 it is an embodiment of the present invention that, in addition to mixtures of agents, single agents can be placed in the receptacles.
Cells were removed from cell culture flasks using trypsin-EDTA according to methods well known in the art. Cells were enumerated, spun down and resuspended in media containing no serum or, alternatively, in media containing 10% fetal calf serum. Cells were plated into the wells of a 96-well microarray according to the layout shown in FIG. 11 and described in Example 3 above. The seeding density was about 10,000 cells per well. Cells were incubated on the plates overnight at 37° C. The following day, media and any cells not adhering to the immobilized agents on the well surfaces were removed. Any adhered cells were fixed by exposure to forrnalin for at least 15 minutes. Propidium iodite was used to fluorescently label the nuclei of said fixed adhered cells. […]

[1] = no serum, FIG. 14, deviation from mid-point reference blend

Substance	effect on cell count (mixture-model analysis) (10% serum, FIG. 15)	effect on cell count (mixture-model analysis) [1]
poly-L-lysine [reference compound]	diminishes	marginal effect
Collagen IV	positive effect on cell count	increase the cell count
laminin	positive effect on cell count	increase the cell count
